Test results from article PMC5478271, “Chemical structure-guided design of dynapyrazoles, cell-permeable dynein inhibitors with a unique mode of action” (eLife, 2017).
“And” between values parts separate entries of the source, which are not always exact repeats. Equal entries are not always repeated.

Columns and labels:
GFP-dynein 1 = target: T1, GFP-dynein 1 (Homo sapiens, UniProt Q14204); experiment: Basal ATPase activity of GFP-dynein 1; type: biochemical; conditions: 40 µM compound, 1 mM MgATP, 2% DMSO; control 0.62 ± 0.2 s^−1
T1 construct: (AA 1320–4646 with additional valine [at position 4647], uniprot Q14204); protein A tag (followed by TEV-cleavable linker) (N, cleaved yes); made in house; host or cells: insect cells (baculovirus)
Procedure: ATPase assays using recombinant Dynein 1 (wild-type and mutants) were performed in a buffer containing 25 mM PIPES pH7.0, 30 mM KCl, 1 mM EGTA, 5 mM MgCl2, 0.01% triton X-100, 1 mM DTT, and 20–30 µM taxol (if microtubules were present). For typical conditions, enzyme was incubated with varying concentrations of inhibitor in buffer containing 2% DMSO for 10 min in a volume of 10 μL. When microtubules were present, they were polymerized by stepwise addition of taxol and high concentrations of DMSO (30% final during polymerization reactions), and re-suspended following centrifugation in ATPase buffer to a concentration up to threefold above the final concentration used in the reaction (bovine brain tubulin, no fluoresecent label). For microtubule-stimulated reactions in dose-response format, reactions were assembled by 1:1:1 mixture of 3x enzyme stock, 3x compound stock (in buffer with 6% DMSO), and 3x microtubule stock to each well. For microtubule-stimulated ATPase assays at tubulin concentrations > 2.5 µM, enzyme stock was supplemented with compound stock in pure DMSO (resulting in an intermediate DMSO concentration of 6%), and then the microtubule stock was added. […]
Assembled reaction mixtures (including enzyme, compound, and microtubules, if present) were incubated for 10 min before addition of ATP. […] The fraction of γ-phosphate hydrolyzed in each condition was quantified using FIJI.

[1] = target: T2, AAA3 Walker A-mutant His-dynein 1 (K2601A) (Homo sapiens, UniProt Q14204, K2601A); experiment: ATPase activity of AAA3 Walker A-mutant (K2601A) His-dynein 1; type: biochemical; conditions: for IC50: 2% DMSO, read-out: IC50, inhibition of the basal ATPase activity of the AAA3 Walker A-mutant His-dynein 1
T2 construct: (wild-type, K1912A, K2601A, AA 1320–4646, uniprot: Q14204); made in house; host or cells: Sf9 insect cells (baculovirus)
Procedure: ATPase assays using recombinant Dynein 1 (wild-type and mutants) were performed in a buffer containing 25 mM PIPES pH7.0, 30 mM KCl, 1 mM EGTA, 5 mM MgCl2, 0.01% triton X-100, 1 mM DTT, and 20–30 µM taxol (if microtubules were present). For typical conditions, enzyme was incubated with varying concentrations of inhibitor in buffer containing 2% DMSO for 10 min in a volume of 10 μL. When microtubules were present, they were polymerized by stepwise addition of taxol and high concentrations of DMSO (30% final during polymerization reactions), and re-suspended following centrifugation in ATPase buffer to a concentration up to threefold above the final concentration used in the reaction (bovine brain tubulin, no fluoresecent label). For microtubule-stimulated reactions in dose-response format, reactions were assembled by 1:1:1 mixture of 3x enzyme stock, 3x compound stock (in buffer with 6% DMSO), and 3x microtubule stock to each well. For microtubule-stimulated ATPase assays at tubulin concentrations > 2.5 µM, enzyme stock was supplemented with compound stock in pure DMSO (resulting in an intermediate DMSO concentration of 6%), and then the microtubule stock was added. Final enzyme concentrations were 30–100 nM for GFP-dynein 1, wild-type 6x-His-dynein 1, and K2601A 6x-His-dynein 1 and up to 500 nM for K1912A 6x-His-dynein 1. The final DMSO concentration was 2% in all ATPase assays performed.
Assembled reaction mixtures (including enzyme, compound, and microtubules, if present) were incubated for 10 min before addition of ATP. Each ATPase reaction was initiated by addition of 2 μL of a 6x ATP stock containing trace γ-^32P ATP (3 µCi/mmol, 3 µCi/mL, Perkin Elmer) and allowed to proceed for a time predetermined to lie within the linear range of the assay (20–30 min). For typical conditions, ATP was used at a final concentration of 1 mM. Reactions were quenched by the addition of 12 µL 100 mM EDTA, and 2 μL of each quenched reaction was spotted onto PEI-cellulose TLC plates (Millipore). Plates were developed in a glass chamber with a freshly prepared solution of 150 mM formic acid and 150 mM LiCl, dried, exposed to a storage phosphor tray (GE Healthsciences), and scanned on a Typhoon imaging system (GE Healthsciences). The fraction of γ-phosphate hydrolyzed in each condition was quantified using FIJI.
(§1) Curve fitting: Where dose-response experiments are fit and IC50values given, these are obtained as follows: Individual experiments are treated as separate. The data are fit to a sigmoidal dose-response curve of the form (Y=Bottom + (Top-Bottom)/(1 + 10^((LogIC50-X)*HillSlope)). All variables were allowed to float freely with the exception of the variable denoted ‘bottom’, which was constrained to be >0. The separate IC50 values obtained from fits to each individual experiment's dataset were averaged together and presented as a mean with range (Figure 3G and H) or standard deviation (Figures 3I, 5D, 6E and K).

[2] = tested on: Gli-driven luciferase reporter in NIH-3T3 (Shh-Light2) cells; experiment: Hedgehog pathway activity, Gli-driven luciferase reporter (Shh-Light2 cells, SAG-stimulated); type: cell-based; conditions: for Concentration at which cell death was observed: 28 hr time course, ~10-fold above the IC50; for IC50: Shh Light2, SAG 500 nM, low serum (0.5% BCS), 28–32 hr, read-out: IC50, inhibition of Gli-driven luciferase reporter expression
From the text: We next examined the inhibition of dynein 2 by dynapyrazole-A in cell-based assays. In cell culture, serum starvation results in the formation of primary cilia, which are required for Hedgehog signaling ([Goetz and Anderson, 2010]). Quiescent cells respond to the Hedgehog ligand or to a synthetic agonist and pathway activity can be measured using a Gli-driven luciferase reporter ([Taipale et al., 2000]; [Chen et al., 2002]). Expression of Hedgehog-driven luciferase reporter was inhibited by dynapyrazole-A (Compound 8, IC50: 1.9 ± 0.6 µM) ~8 fold more potently than ciliobrevin D (IC50: 15.5 ± 3 µM, Figure 3I). […] In this assay, we have also observed cell death at high ciliobrevin D concentrations (200 µM,~10x above its IC50). To stimulate Hedgehog pathway activity, we used the synthetic agonist of smoothened (SAG) ([Chen et al., 2002]), which competes with many known Hedgehog pathway inhibitors for binding to Smoothened, a key protein in this signaling pathway ([Sharpe et al., 2015]). As dynapyrazole-A inhibits Hedgehog signaling at high SAG concentrations (500 nM), it is likely to act downstream of Smoothened, as was previously noted for ciliobrevins and consistent with inhibition of dynein 2 ([Hyman et al., 2009]; [Firestone et al., 2012]).
NIH-3T3 cells stably expressing a luciferase reporter downstream of a Gli binding site (Shh-Light2 cells, RRID: CVCL_2721) were maintained in DMEM with 10% bovine calf serum (BCS). Cells were seeded at a density of 30,000 cells/well in 96-well tissue culture-treated plates (Corning, cat #353072) in 100 μL in DMEM +10% BCS, and incubated for 48 hr ([Taipale et al., 2000]). Wells were washed briefly with PBS. Next 100 μL of low serum media (DMEM +0.5% BCS) containing smoothened agonist (SAG, 500nM), and either solvent control (0.2% DMSO) or test compound (serial threefold dilutions of each inhibitor starting from 20 μM) were added to the wells. After 28–32 hr of inhibitor treatment, cells were washed with 50 μL PBS and lysed for >30 min in 30 μL Passive Lysis Buffer (Promega Dual Luciferase kit, cat E1910). 5 μL of each lysate was transferred to white, solid-bottom 96-well plates (Greiner, cat #655075), followed by rapid addition (within 30 s) of 30 μL of Luciferase Assay Reagent using a multichannel pipette. Luminescence for each condition was read using a Synergy Neo plate reader (5 s integration time per well). Cell line identity was confirmed by measurement of the degree of response to Hedgehog pathway stimulation by the synthetic agonist SAG and using previously-published values from our groups and others as references ([Firestone et al., 2012]; [Hyman et al., 2009]).
as §1

T2 sequence (Q14204 1320-4646 K2601A): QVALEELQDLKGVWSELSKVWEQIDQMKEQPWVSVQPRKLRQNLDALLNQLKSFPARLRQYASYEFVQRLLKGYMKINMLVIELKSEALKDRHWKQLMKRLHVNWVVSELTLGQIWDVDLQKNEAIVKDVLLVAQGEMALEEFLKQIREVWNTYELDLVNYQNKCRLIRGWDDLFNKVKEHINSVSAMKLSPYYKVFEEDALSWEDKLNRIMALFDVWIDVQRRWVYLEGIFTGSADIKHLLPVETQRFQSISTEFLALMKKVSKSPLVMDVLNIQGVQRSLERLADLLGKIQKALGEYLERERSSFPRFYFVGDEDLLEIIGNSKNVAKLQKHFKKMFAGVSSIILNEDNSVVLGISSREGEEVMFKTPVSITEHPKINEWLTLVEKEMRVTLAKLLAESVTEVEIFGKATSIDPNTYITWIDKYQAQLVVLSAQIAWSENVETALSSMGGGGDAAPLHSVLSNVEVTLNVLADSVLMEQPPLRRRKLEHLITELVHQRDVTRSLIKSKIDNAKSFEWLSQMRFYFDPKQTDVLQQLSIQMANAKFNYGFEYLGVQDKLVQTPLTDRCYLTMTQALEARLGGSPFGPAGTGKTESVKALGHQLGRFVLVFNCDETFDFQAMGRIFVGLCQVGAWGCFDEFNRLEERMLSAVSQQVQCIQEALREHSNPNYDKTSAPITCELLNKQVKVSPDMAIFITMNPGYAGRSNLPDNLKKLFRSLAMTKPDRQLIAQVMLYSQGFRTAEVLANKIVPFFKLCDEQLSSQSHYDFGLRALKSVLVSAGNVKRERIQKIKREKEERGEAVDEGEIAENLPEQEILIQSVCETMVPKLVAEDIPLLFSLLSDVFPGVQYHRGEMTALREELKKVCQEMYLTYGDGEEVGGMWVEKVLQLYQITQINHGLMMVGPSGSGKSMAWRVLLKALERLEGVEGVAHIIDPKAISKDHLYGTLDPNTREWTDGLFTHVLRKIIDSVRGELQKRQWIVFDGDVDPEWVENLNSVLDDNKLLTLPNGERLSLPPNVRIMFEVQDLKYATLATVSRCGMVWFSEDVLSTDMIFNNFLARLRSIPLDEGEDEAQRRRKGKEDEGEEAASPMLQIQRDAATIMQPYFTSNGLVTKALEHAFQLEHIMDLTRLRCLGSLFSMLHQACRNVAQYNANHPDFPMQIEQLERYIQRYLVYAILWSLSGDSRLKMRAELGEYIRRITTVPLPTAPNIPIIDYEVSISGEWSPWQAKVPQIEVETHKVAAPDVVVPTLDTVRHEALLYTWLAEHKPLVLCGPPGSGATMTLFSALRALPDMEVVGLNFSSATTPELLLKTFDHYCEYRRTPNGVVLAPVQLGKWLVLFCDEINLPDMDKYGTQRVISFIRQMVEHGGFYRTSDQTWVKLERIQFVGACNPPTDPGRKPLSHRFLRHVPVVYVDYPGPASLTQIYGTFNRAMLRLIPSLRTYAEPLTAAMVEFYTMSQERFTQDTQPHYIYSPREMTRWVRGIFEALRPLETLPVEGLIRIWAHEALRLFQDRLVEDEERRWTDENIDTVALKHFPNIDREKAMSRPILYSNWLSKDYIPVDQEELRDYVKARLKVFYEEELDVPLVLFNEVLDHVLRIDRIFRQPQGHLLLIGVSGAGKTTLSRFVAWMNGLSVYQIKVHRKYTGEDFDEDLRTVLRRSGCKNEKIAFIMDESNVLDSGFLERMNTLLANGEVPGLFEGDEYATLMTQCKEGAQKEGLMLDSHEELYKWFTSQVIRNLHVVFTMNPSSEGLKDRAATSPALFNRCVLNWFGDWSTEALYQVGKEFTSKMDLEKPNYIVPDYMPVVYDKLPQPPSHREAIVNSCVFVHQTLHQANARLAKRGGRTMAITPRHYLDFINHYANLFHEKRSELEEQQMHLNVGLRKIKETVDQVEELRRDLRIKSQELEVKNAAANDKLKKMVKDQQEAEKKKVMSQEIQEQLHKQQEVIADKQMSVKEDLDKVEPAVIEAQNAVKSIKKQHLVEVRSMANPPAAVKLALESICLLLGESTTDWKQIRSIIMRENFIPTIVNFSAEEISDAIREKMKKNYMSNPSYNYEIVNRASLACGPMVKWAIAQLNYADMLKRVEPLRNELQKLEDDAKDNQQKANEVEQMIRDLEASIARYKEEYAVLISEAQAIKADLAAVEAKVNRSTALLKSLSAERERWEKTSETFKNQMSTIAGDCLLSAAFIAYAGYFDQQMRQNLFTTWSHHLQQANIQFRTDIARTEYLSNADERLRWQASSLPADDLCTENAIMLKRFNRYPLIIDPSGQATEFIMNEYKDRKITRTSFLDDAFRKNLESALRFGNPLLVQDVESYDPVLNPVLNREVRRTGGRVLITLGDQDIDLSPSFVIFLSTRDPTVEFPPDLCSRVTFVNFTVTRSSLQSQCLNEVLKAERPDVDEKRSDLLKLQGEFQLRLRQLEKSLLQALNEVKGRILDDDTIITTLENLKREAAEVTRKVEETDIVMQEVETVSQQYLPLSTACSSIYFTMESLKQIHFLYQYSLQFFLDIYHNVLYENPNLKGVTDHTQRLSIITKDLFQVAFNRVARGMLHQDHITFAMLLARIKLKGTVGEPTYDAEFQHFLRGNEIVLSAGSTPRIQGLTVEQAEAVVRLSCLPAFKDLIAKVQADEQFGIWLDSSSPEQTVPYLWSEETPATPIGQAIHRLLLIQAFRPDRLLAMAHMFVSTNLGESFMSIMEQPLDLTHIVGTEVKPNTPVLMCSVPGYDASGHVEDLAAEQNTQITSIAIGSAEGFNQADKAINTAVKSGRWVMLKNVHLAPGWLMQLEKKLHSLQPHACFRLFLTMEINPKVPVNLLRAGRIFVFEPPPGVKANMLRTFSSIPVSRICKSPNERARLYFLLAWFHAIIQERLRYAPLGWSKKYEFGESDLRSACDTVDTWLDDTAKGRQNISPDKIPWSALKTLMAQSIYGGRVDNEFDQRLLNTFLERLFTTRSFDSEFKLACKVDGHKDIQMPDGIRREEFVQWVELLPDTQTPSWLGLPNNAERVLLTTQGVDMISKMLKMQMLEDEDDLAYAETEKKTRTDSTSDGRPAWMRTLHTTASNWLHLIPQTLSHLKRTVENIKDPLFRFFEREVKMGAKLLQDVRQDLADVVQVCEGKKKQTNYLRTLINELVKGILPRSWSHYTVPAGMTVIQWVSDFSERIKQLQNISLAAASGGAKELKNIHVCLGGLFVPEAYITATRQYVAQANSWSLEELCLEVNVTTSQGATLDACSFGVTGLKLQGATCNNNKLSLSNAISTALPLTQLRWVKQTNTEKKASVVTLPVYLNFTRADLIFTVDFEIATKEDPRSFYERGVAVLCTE

| Compound | Inhibition of basal ATPase activity of GFP-dynein 1 (GFP-dynein 1) | Reduction of AAA3 mutant dynein's ATPase activity across the range of microtubule concentrations tested ([1]; 30 µM compound, 1 mM MgATP) | inhibition at 30 µM ([1]; 30 µM compound, no microtubules, read-out: Inhibition of basal activity of the AAA3 mutant) [%] | IC50 ([1]; 1 mM MgATP) | Residual ATPase activity of AAA3 mutant at the highest concentrations tested ([1]; basal activity, dose-response) | Concentration at which cell death was observed [2] [µM] | IC50 [2] [µM] | Potency relative to ciliobrevin D, Hedgehog-driven luciferase reporter ([2]; more potent than ciliobrevin D) | inhibition at 40 µM (GFP-dynein 1) [%] |
| --- | --- | --- | --- | --- | --- | --- | --- | --- | --- |
| N#Cc1c(C2(c3ccc(Cl)cc3)CC2)nn2c1[nH]c(=O)c1cc(I)ccc12 [Compound 8, 2-[1-(4-chlorophenyl)cyclopropyl]-7-iodo-5-oxo-4H-pyrazolo[1,5-a]quinazoline-3-carbonitrile] | did not inhibit | 70–80% | ~70 | 5.5 ± 1.6 µM | ~ 0.2 s^−1 | 20 | 1.9 ± 0.6 | ~ 8 fold | – |
| N#C/C(C(=O)c1ccc(Cl)cc1Cl)=C1\NC(=O)c2ccc(Cl)cc2N1 [ciliobrevin D, reference compound] | – | – | – | 38.4 µM and 38 µM | – | 200 | 15.5 ± 3 | – | ~70 |
